Measurements reported in US10766869B2, “Triazoles for the treatment of demyelinating dieases” (Vertex Pharmaceuticals Incorporated, priority 2015, dated 2020).
Read-outs that look alike come from different tables or passages of the source.

System: primary rat mixed cortical cells
Test: In vitro myelination assay (MBP positive myelin strands, fold myelin pixels above background)
Format: cell-based
Settings: for fold induction at 1 µM / fold induction at 10 µM: Rattus norvegicus; for fold induction at 1 µM: 1.0 μM compound
Summary of the method: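 Fourteen-day treatment of primary P1 rat mixed cortical cultures, re-dosed at days 6 and 10, at 1.0 μM and 10.0 μM. MBP immunofluorescence was imaged at 10× and myelin strands quantified by software, normalised to untreated wells as fold above background.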

[1] = relative to baseline of no added compound, read-out: Fold myelin pixels above background
[2] = 10.0 μM compound, relative to baseline of no added compound, read-out: Fold myelin pixels above background
[3] = read-out: Fold myelin pixels above background relative to baseline of no added compound
[4] = relative to baseline of no added compound, read-out: Fold myelin pixels above background, 1.0 μM
[5] = 10.0 μM compound, relative to baseline of no added compound, read-out: Fold myelin pixels above background, 10.0 μM

Structure (SMILES) | fold induction at 1 µM [1] | fold induction at 10 µM [2] | fold induction at 1 µM [4] | fold induction at 10 µM [5] | other results
Cc1cc(Nc2ncn(-c3cc(F)cc(F)c3)n2)cc(N2CC(C3COC3)C2)c1 [Compound 506, 1-(3,5-difluorophenyl)-N-[3-methyl-5-[3-(oxetan-3-yl)azetidin-1-yl]phenyl]-1,2,4-triazol-3-amine] | 100 to 1000 | 1 to 10 | – | – | –
Cc1cc(Nc2ncn(-c3cccnc3)n2)cc(N2CCN(C3(C)COC3)CC2)c1 [Compound 585, N-[3-methyl-5-[4-(3-methyloxetan-3-yl)piperazin-1-yl]phenyl]-1-(3-pyridyl)-1,2,4-triazol-3-amine] | 10 to 100 | 1 to 10 | – | – | –
[2H]C1([2H])N(CC)C([2H])([2H])C([2H])([2H])N(c2cc(C)cc(Nc3ncn(-c4cc(F)cc(F)c4)n3)c2)C1([2H])[2H] [Compound 947, 1-(3,5-difluorophenyl)-N-[3-methyl-5-(2,2,3,3,5,5,6,6-octadeuterio-4-ethyl-piperazin-1-yl)phenyl]-1,2,4-triazol-3-amine] | – | – | – | – | fold induction at 1 µM [3]: 1 to 10; fold induction at 10 µM (10.0 μM compound, read-out: Fold myelin pixels above background relative to baseline of no added compound): ≤ 1
Cc1cc(Nc2ncn(-c3cc(F)cc(F)c3)n2)cc(N2CC(CO)C2)c1 [Compound 493, [1-[3-[[1-(3,5-difluorophenyl)-1,2,4-triazol-3-yl]amino]-5-methyl-phenyl]azetidin-3-yl]methanol] | – | ≤ 1 | – | – | –
Clc1cc(Nc2ncn(-c3ccccc3)n2)cc(N2CCCC2)c1 [Compound 380, N-(3-chloro-5-pyrrolidin-1-yl-phenyl)-1-phenyl-1,2,4-triazol-3-amine] | – | – | 100 to 1000 | 10 to 100 | –
CC(C)(C)c1cc(Nc2ncn(-c3cc(F)cc(F)c3)n2)cc(N2CCN(C3COC3)CC2)c1 [Compound 17, N-[3-tert-butyl-5-[4-(oxetan-3-yl)piperazin-1-yl]phenyl]-1-(3,5-difluorophenyl)-1,2,4-triazol-3-amine] | – | – | 100 to 1000 | ≤ 1 | –
Cc1cc(Nc2ncn(-c3ccccn3)n2)cc(N2CCCN(C3COC3)CC2)c1 [Compound 609, N-[3-methyl-5-[4-(oxetan-3-yl)-1,4-diazepan-1-yl]phenyl]-1-(2-pyridyl)-1,2,4-triazol-3-amine] | 100 to 1000 | 100 to 1000 | – | – | –
COCC1CCN(c2cc(C(F)F)cc(Nc3ncn(-c4cc(F)cc(F)c4)n3)n2)CC1 [Compound 729, 4-(difluoromethyl)-N-[1-(3,5-difluorophenyl)-1,2,4-triazol-3-yl]-6-[4-(methoxymethyl)-1-piperidyl]pyridin-2-amine] | ≤ 1 | 10 to 100 | – | – | –
Cc1cc(Nc2ncn(-c3ccccc3)n2)cc(C2COC2)c1 [Compound 363, N-[3-methyl-5-(oxetan-3-yl)phenyl]-1-phenyl-1,2,4-triazol-3-amine] | – | – | 1000 to 10000 | 100 to 1000 | –
COc1cc(Nc2ncn(-c3cc(F)cc(F)c3)n2)nc(N2CCN(C3COC3)CC2)c1 [Compound 599, N-[1-(3,5-difluorophenyl)-1,2,4-triazol-3-yl]-4-methoxy-6-[4-(oxetan-3-yl)piperazin-1-yl]pyridin-2-amine] | 10 to 100 | 10 to 100 | – | – | –
Cc1cc(Nc2ncn(-c3cccc(F)c3)n2)c(F)c(OC2CCOC2)c1 (single isomer, unassigned) [Compound 1061, N-(2-fluoro-5-methyl-3-tetrahydrofuran-3-yloxy-phenyl)-1-(3-fluorophenyl)-1,2,4-triazol-3-amine] | – | – | – | – | Fold myelin pixels above background relative to baseline of no added compound (10.0 μM compound): ++ (>10 to 100x); fold induction at 1 µM [3]: 10 to 100
Cc1cc(Nc2ncn(-c3ccccn3)n2)nc(N2CC(N3CCOCC3)C2)c1 [Compound 503, 4-methyl-6-(3-morpholinoazetidin-1-yl)-N-[1-(2-pyridyl)-1,2,4-triazol-3-yl]pyridin-2-amine] | 1 to 10 | ≤ 1 | – | – | –
Cc1cc(Nc2ncn(-c3cc(F)cc(F)c3)n2)cc(N2CCNCC2=O)c1 [Compound 93, 1-[3-[[1-(3,5-difluorophenyl)-1,2,4-triazol-3-yl]amino]-5-methyl-phenyl]piperazin-2-one] | – | – | 10 to 100 | 100 to 1000 | –
